According to US6965033B2, “Bisamidate phosphonate prodrugs” (Metabasis Therapeutics, Inc., priority 1999, dated 2005):

Legend:
[1] = tested on: Zucker Diabetic Fatty (ZDF rat); assay: Acute Oral Efficacy in the ZDF Rat; type: in vivo
Method: Methods: ZDF rats were purchased from Genetics Inc (Indianapolis, Ind.) at 8 weeks of age. Animals were maintained under standard vivarium conditions and provided with Purina 5008 chow and water ad libitum. At 10-12 weeks of age, rats with blood glucose levels>500 mg/dl were selected and dosed orally either with vehicle (PEG 400), or prodrug (60 mg/kg). Blood glucose levels were monitored at regular intervals for 6 hours following dosing. Blood samples were taken from tail vein nicks and analyzed by means of a HemoCue glucose analyzer (Hemocue, Mission Viejo, Calif.). Statistical analysis was performed using the Student's t test. Means±standard error of the means are shown.

[2] = Metabolism of 50.6 in human plasma; type: in vitro ADME; conditions: 100 μM
Method: (§1) The metabolism of 50.6 was evaluated in rat, monkey, and human plasma by reverse phase HPLC with use of a Beckman Ultrasphere ODS column (4.6×150 mm) equipped with an Alltech All-Guard column. The column was equilibrated with 20 mM potassium phosphate, pH 6.2 and eluted with a linear gradient of 0-60% acetonitrile over 20 minutes at a flow rate of 1.5 mL/min and at a temperature of 40° C. UV absorbance was monitored at 300 nm. […] The metabolite formed in rat plasma was collected and subjected to mass spectrum analysis at Mass Consortium Corporation (San Diego, Calif.). […] This molecular weight is consistent with that of a monophosphoramidate intermediate. This intermediate is likely formed via a reaction mechanism in which the prodrug first undergoes full de-esterification followed by intramolecular, hydrolytic cleavage of one of the amino acyl substituents. Formation of the postulated monophosphoramidate intermediate was confirmed following the synthesis of a synthetic standard, Compound C. The standard had the identical HPLC and UV profile as the metabolite formed in plasma samples.

[3] = tested on: Human Liver Phosphoramidase; assay: Structure Activity Relationship of Human Liver Phosphoramidase (human liver homogenate); type: in vitro ADME; conditions: pH 7.4
Method: Human liver, purchased from the Anatomic Gift Foundation (Laurel, Md.), was homogenized in Krebs-bicarbonate buffer and clarified by a slow-speed centrifugation. Prodrug metabolism was evaluated in reaction mixtures containing human liver homogenate (4 mgs protein), 50 mM Tris-HCl, pH 7.4, 10 mM MgCl2, and 10 mM dithiothreitol. At various time intervals over the course of 2 hours, aliquots were removed from the reaction mixtures and deproteinated by addition of methanol to 60%. Following clarification by centrifugation, metabolites were analyzed by reverse phase HPLC with use of a Beckman Ultrasphere ODS column (4.6×150 mm) equipped with an Alltech All-Guard column. The column was equilibrated with 20 mM potassium phosphate, pH 6.2 and eluted with a linear gradient of 0-60% acetonitrile over 20 minutes at a flow rate of 1.5 mL/min and at a temperature of 40° C. UV absorbance was monitored at 300 nm. Most of the prodrugs evaluated were metabolized via a non-rate limiting, esterase-catalyzed step to their monophosphoramidate form within 5 minutes of incubation. The rate of phosphonic acid appearance was therefore essentially a reflection of the rate of the final […] cleavage step. Results for representative prodrugs for which the esterase-catalyzed step was non-rate limiting are shown below: […]

[4] = tested on: ZDF rat; assay: Chronic Oral Efficacy in the ZDF Rat; type: in vivo
Method: Methods: ZDF rats (10 weeks of age) were maintained either on powdered Purina 5008 rat chow (n=10) or the same powdered chow supplemented with 0.4% 50.6 (n=8). Blood glucose measurements were made as described in Example E at baseline and at weekly intervals thereafter for a total of 3 weeks. Statistical analysis was performed using the Student's t test. Means±standard error of the means are shown.

[5] = Metabolism of 50.6 in monkey plasma; type: in vitro ADME; conditions: 100 μM
Method: as §1

[6] = tested on: human hepatocytes; assay: Metabolism of 50.6 in Human Hepatocytes; type: in vitro ADME; conditions: 10 μM
Method: Cryopreserved human hepatocytes were obtained from In Vitro Technologies and thawed according to the vendor's recommendations. Cells were incubated at 37° C. in a Krebs-bicarbonate based buffer containing 50.6 at 10 μM. At various time points over the course of 4 hours, aliquots of cells were removed and extracted by addition of methanol to 60%. Cell extracts were clarified by centrifugation and analyzed by reverse phase HPLC with use of a Beckman Ultrasphere ODS column (4.6×150 mm) equipped with an Alltech All-Guard column. […]. Disappearance of 50.6 was rapid and essentially complete within 60 minutes of incubation. […] The initial rate of 3.1 formation was 24 pmol/million cells/minute. […]

[7] = Metabolism of 50.6 in rat plasma; type: in vitro ADME; conditions: 100 μM
Method: as §1

CCOC(=O)[C@H](C)NP(=O)(N[C@@H](C)C(=O)OCC)c1ccc(-c2nc(N)sc2CC(C)C)o1 [Compound 50.6, 2-Amino-5-isobutyl-4-{2-[5-(N,N′-bis((S)-1-ethoxycarbonyl)ethyl)phosphonamido]furanyl}thiazole]
Blood Glucose, T6h ([1]; 6 h after 60 mg/kg oral): 406 ± 12 mg/dL
Blood Glucose, % Change ([1]; baseline to 6 h, 60 mg/kg oral): −25%
Blood Glucose, Tbaseline ([1]; baseline, 60 mg/kg oral group): 544 ± 25 mg/dL
metabolites formed in plasma [2]: single metabolite
Phosphoramidase Activity (Rate of 3.1 or 3.58 production, nmoles/mn/mg liver protein) [3]: 0.022 nmoles/mn/mg liver protein
Blood glucose, t21 days ([4]; 21 days on chow supplemented with 0.4% drug): 436 ± 41 mg/dL
Blood Glucose, Tbaseline ([4]; baseline, chow with 0.4% drug group): 674 ± 20 mg/dL
metabolites formed in plasma [5]: single metabolite
time to essentially complete disappearance ([6]; cryopreserved human hepatocytes, 37° C.): ≤ 60 min
initial rate of 3.1 formation ([6]; human hepatocytes): 24 pmol/million cells/minute
metabolites detected ([6]; human hepatocytes): Compound C and 3.1
metabolites formed in plasma [7]: single metabolite
